Assay results reported in ChEMBL document CHEMBL2311252, “Cytosporone S with antimicrobial activity, isolated from the fungus Trichoderma sp. FKI-6626” (2013).
Values after ≈ are worked out from the molar mass of the structure shown.

Experiments:
Mucor racemosus = experiment: Antifungal activity against Mucor racemosus KF223 NBRC4581 by agar dilution method; assay type: functional
Aspergillus niger = experiment: Antifungal activity against Aspergillus niger KF104 ATCC 9643 by agar dilution method; assay type: functional
Aspergillus oryzae = experiment: Antifungal activity against Aspergillus oryzae KF439 by agar dilution method; assay type: functional
Saccharomyces cerevisiae = experiment: Antifungal activity against Saccharomyces cerevisiae KF26 by agar dilution method; assay type: functional
Candida albicans = experiment: Antifungal activity against Candida albicans KF1 by agar dilution method; assay type: functional
Pseudomonas aeruginosa [1] = experiment: Antibacterial activity against Pseudomonas aeruginosa KB359 NBRC12582 by agar dilution method; assay type: functional
Pseudomonas aeruginosa [2] = experiment: Antibacterial activity against Pseudomonas aeruginosa KB115 NBRC3080 by agar dilution method; assay type: functional
Comamonas terrigena = experiment: Antibacterial activity against Comamonas terrigena KB358 NBRC13299 by agar dilution method; assay type: functional
Serratia marcescens = experiment: Antibacterial activity against Serratia marcescens KB215 IAM1021 by agar dilution method; assay type: functional
Proteus mirabilis = experiment: Antibacterial activity against Proteus mirabilis KB125 NBRC3849 by agar dilution method; assay type: functional
Proteus vulgaris = experiment: Antibacterial activity against Proteus vulgaris KB127 IF03167 by agar dilution method; assay type: functional
Salmonella typhimurium = experiment: Antibacterial activity against Salmonella typhimurium KB20 by agar dilution method; assay type: functional, Salmonella enterica subsp. enterica serovar Typhimurium; settings: Salmonella enterica
Klebsiella pneumoniae [3] = experiment: Antibacterial activity against Klebsiella pneumoniae KB357 NBRC357 by agar dilution method; assay type: functional
Klebsiella pneumoniae [4] = experiment: Antibacterial activity against Klebsiella pneumoniae KB214 ATCC 10031 by agar dilution method; assay type: functional
Escherichia coli [5] = experiment: Antibacterial activity against Escherichia coli KB336 JCM5491 by agar dilution method; assay type: functional
Escherichia coli [6] = experiment: Antibacterial activity against Escherichia coli KB176 NIHJ JC-2 by agar dilution method; assay type: functional
Escherichia coli [7] = experiment: Antibacterial activity against Escherichia coli KB213 NIHJ by agar dilution method; assay type: functional
[8] = system: Mycolicibacterium smegmatis; experiment: Antibacterial activity against Mycobacterium smegmatis KB42 ATCC 607 by agar dilution method; assay type: functional
Micrococcus luteus = experiment: Antibacterial activity against Micrococcus luteus KB453 NBRC13867 by agar dilution method; assay type: functional
Kocuria rhizophila [9] = experiment: Antibacterial activity against Kocuria rhizophila KB354 NBRC12708 by agar dilution method; assay type: functional
Kocuria rhizophila [10] = experiment: Antibacterial activity against Kocuria rhizophila KB212 ATCC 9341 by agar dilution method; assay type: functional
Bacillus cereus = experiment: Antibacterial activity against Bacillus cereus KB143 NBRC3001 by agar dilution method; assay type: functional
Bacillus subtilis [11] = experiment: Antibacterial activity against Bacillus subtilis KB340 JCM1465 by agar dilution method; assay type: functional
Bacillus subtilis [12] = experiment: Antibacterial activity against Bacillus subtilis KB355 NBRC3134 by agar dilution method; assay type: functional
Bacillus subtilis [13] = experiment: Antibacterial activity against Bacillus subtilis KB211 ATCC 6633 by agar dilution method; assay type: functional
[14] = system: Staphylococcus epidermidis; experiment: Antibacterial activity against Staphylococcus epidermidis KB352 NBRC12993 by agar dilution method; assay type: functional
Staphylococcus aureus [15] = experiment: Antibacterial activity against Staphylococcus aureus KB349 MRSA K24 by agar dilution method; assay type: functional
Staphylococcus aureus [16] = experiment: Antibacterial activity against Staphylococcus aureus KB335 JCM2151 by agar dilution method; assay type: functional
Staphylococcus aureus [17] = experiment: Antibacterial activity against Staphylococcus aureus KB210 ATCC 6538p by agar dilution method; assay type: functional

MIC (Mucor racemosus): 100 µg/mL (≈ 357 µM)
MIC (Aspergillus niger): 50 µg/mL (≈ 178 µM)
MIC (Aspergillus oryzae): 50 µg/mL (≈ 178 µM)
MIC (Saccharomyces cerevisiae): 12.5 µg/mL (≈ 44.6 µM)
MIC (Candida albicans): 25 µg/mL (≈ 89.2 µM)
MIC (Pseudomonas aeruginosa [1]): 100 µg/mL (≈ 357 µM)
MIC (Pseudomonas aeruginosa [2]): 100 µg/mL (≈ 357 µM)
MIC (Comamonas terrigena): 50 µg/mL (≈ 178 µM)
MIC (Serratia marcescens): > 100 µg/mL
MIC (Proteus mirabilis): 100 µg/mL (≈ 357 µM)
MIC (Proteus vulgaris): 50 µg/mL (≈ 178 µM)
MIC (Salmonella typhimurium): > 100 µg/mL
MIC (Klebsiella pneumoniae [3]): > 100 µg/mL
MIC (Klebsiella pneumoniae [4]): > 100 µg/mL
MIC (Escherichia coli [5]): > 100 µg/mL
MIC (Escherichia coli [6]): > 100 µg/mL
MIC (Escherichia coli [7]): 100 µg/mL (≈ 357 µM)
MIC [8]: 50 µg/mL (≈ 178 µM)
MIC (Micrococcus luteus): 50 µg/mL (≈ 178 µM)
MIC (Kocuria rhizophila [9]): 50 µg/mL (≈ 178 µM)
MIC (Kocuria rhizophila [10]): 50 µg/mL (≈ 178 µM)
MIC (Bacillus cereus): 50 µg/mL (≈ 178 µM)
MIC (Bacillus subtilis [11]): 50 µg/mL (≈ 178 µM)
MIC (Bacillus subtilis [12]): 50 µg/mL (≈ 178 µM)
MIC (Bacillus subtilis [13]): 100 µg/mL (≈ 357 µM)
MIC [14]: 50 µg/mL (≈ 178 µM)
MIC (Staphylococcus aureus [15]): 50 µg/mL (≈ 178 µM)
MIC (Staphylococcus aureus [16]): 50 µg/mL (≈ 178 µM)
MIC (Staphylococcus aureus [17]): 50 µg/mL (≈ 178 µM)
SMILES: CCCCCC1OC(=O)Cc2cc(OC)c(O)c(O)c21 (racemic)
